Laboratory results reported in patent publication US6355799B1, “Substituted benzene compounds, process for their preparation, and herbicidal and defoliant compositions containing them” (ISK Americas Incorporated, priority 1997, dated 2002).

Tests used:
Assay type in all cases: in vivo
[1] = test system: redroot pigweed (Amaranthus retroflexus, AMARE); test: Pre-emerge test, greenhouse herbicide activity screening; details: for phytotoxicity rating AMARE: pre-emerge, 14 days after application, rating scale 0-100; for Pre-emerge Herbicidal Activity AMARE: phytotoxicity rating 0-100, 14 days after application
How it was run: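 Rating: 0–100 visual injury, 14 DAA. Application: acetone, 187 l/ha, 15–1000 g ai/ha, flat-fan track sprayer with nozzle 40–45 cm above soil or canopy. Post-emerge runs used 0.25% v/v surfactant on 2–3 leaf plants.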

[2] = test system: barnyardgrass (Echinochloa crus-galli, ECHCG); test: as above; details: for phytotoxicity rating ECHCG: pre-emerge, 14 days after application, rating scale 0-100; for Pre-emerge Herbicidal Activity ECHCG: phytotoxicity rating 0-100, 14 days after application
How it was run: (§1)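 Plants grown in 10 cm pots of sandy loam mix received acetone-dissolved compounds through a moving flat-fan nozzle. Doses ranged from 15 to 1000 g ai/ha. Pre-emerge pots were seeded one day earlier, post-emerge pots 8–21 days earlier. Fourteen days on, each pot was graded 0–100 for damage.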

[3] = test system: green foxtail (Setaria viridis, SETVI); test: as above; details: for phytotoxicity rating SETVI: pre-emerge, 14 days after application, rating scale 0-100; for Pre-emerge Herbicidal Activity SETVI: phytotoxicity rating 0-100, 14 days after application
How it was run: as §1

[4] = test system: ivyleaf morningglory (Ipomoea hederacea, IPOHE); test: as above; details: for phytotoxicity rating IPOHE: pre-emerge, 14 days after application, rating scale 0-100; for Pre-emerge Herbicidal Activity IPOHE: phytotoxicity rating 0-100, 14 days after application
How it was run: as §1

[5] = test system: johnsongrass (Sorghum halepense, SORHA); test: as above; details: for phytotoxicity rating SORHA: pre-emerge, 14 days after application, rating scale 0-100; for Pre-emerge Herbicidal Activity SORHA: phytotoxicity rating 0-100, 14 days after application
How it was run: as §1

[6] = test system: lambsquarters (Chenopodium album, CHEAL); test: as above; details: for phytotoxicity rating CHEAL: pre-emerge, 14 days after application, rating scale 0-100; for Pre-emerge Herbicidal Activity CHEAL: phytotoxicity rating 0-100, 14 days after application
How it was run: as §1

[7] = test system: large crabgrass (Digitaria sanguinalis, DIGSA); test: as above; details: for phytotoxicity rating DIGSA: pre-emerge, 14 days after application, rating scale 0-100; for Pre-emerge Herbicidal Activity DIGSA: phytotoxicity rating 0-100, 14 days after application
How it was run: as §1

[8] = test system: sicklepod (Cassia obtusifolia, CASOB); test: as above; details: for phytotoxicity rating CASOB: pre-emerge, 14 days after application, rating scale 0-100; for Pre-emerge Herbicidal Activity CASOB: phytotoxicity rating 0-100, 14 days after application
How it was run: as §1

[9] = test system: velvetleaf (Abutilon theophrasti, ABUTH); test: as above; details: for phytotoxicity rating ABUTH: pre-emerge, 14 days after application, rating scale 0-100; for Pre-emerge Herbicidal Activity ABUTH: phytotoxicity rating 0-100, 14 days after application
How it was run: as §1

[10] = test system: field corn (Zea mays L., var. Dekalb 535, CORN); test: Pre-emerge test, crop safety; details: for phytotoxicity rating CORN: pre-emerge, 14 days after application, rating scale 0-100; for Pre-emerge Herbicidal Activity CORN: crop damage rating 0-100, 14 days after application
How it was run: (§2)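 Fourteen days after spraying, crop and weed injury was graded visually from 0, no effect, to 100, every plant dead. Test substances were dissolved in acetone and applied at 15–1000 g ai/ha with a flat-fan nozzle. Application was either pre-emergence, one day after sowing, or post-emergence at the 2–3 leaf stage.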

[11] = test system: upland rice (Oryza sp., var. Tebonnet, RICE); test: Pre-emerge test, crop safety; details: for phytotoxicity rating RICE: pre-emerge, 14 days after application, rating scale 0-100; for Pre-emerge Herbicidal Activity RICE: crop damage rating 0-100, 14 days after application
How it was run: as §2

[12] = test system: barnyardgrass (Echinochloa crus-galli, ECHCG); test: Post-emerge test, greenhouse herbicide activity screening; details: post-emerge, 14 days after application, rating scale 0-100
How it was run: (§3)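 Visual ratings on a 0-100 scale (0 no damage, 100 all plants dead) were taken at 14 days after treatment. Rates of 15-1000 g ai/ha in acetone, 187 l/ha, were sprayed onto soil one day after planting (pre-emerge) or onto 2-3 leaf plants with 0.25% v/v surfactant (post-emerge).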

[13] = test system: green foxtail (Setaria viridis, SETVI); test: as above; details: post-emerge, 14 days after application, rating scale 0-100
How it was run: as §3

[14] = test system: ivyleaf morningglory (Ipomoea hederacea, IPOHE); test: as above; details: post-emerge, 14 days after application, rating scale 0-100
How it was run: as §3

[15] = test system: johnsongrass (Sorghum halepense, SORHA); test: as above; details: post-emerge, 14 days after application, rating scale 0-100
How it was run: as §3

[16] = test system: large crabgrass (Digitaria sanguinalis, DIGSA); test: as above; details: post-emerge, 14 days after application, rating scale 0-100
How it was run: as §3

[17] = test system: redroot pigweed (Amaranthus retroflexus, AMARE); test: as above; details: post-emerge, 14 days after application
How it was run: as §3

[18] = test system: sicklepod (Cassia obtusifolia, CASOB); test: as above; details: post-emerge, 14 days after application, rating scale 0-100
How it was run: as §3

[19] = test system: velvetleaf (Abutilon theophrasti, ABUTH); test: as above; details: post-emerge, 14 days after application, rating scale 0-100
How it was run: as §3

[20] = test system: field corn (Zea mays L., var. Dekalb 535, CORN); test: Post-emerge test, crop safety; details: post-emerge, 14 days after application, rating scale 0-100
How it was run: (§4)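 Each test used a mechanized track sprayer delivering 187 l/ha of acetone solution at 15–1000 g ai/ha. Post-emerge foliage at 2–3 leaves was treated with added 0.25% v/v non-ionic surfactant and bottom-watered only. Injury was assessed on day 14, where 100 means total kill.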

[21] = test system: upland rice (Oryza sp., var. Tebonnet, RICE); test: Post-emerge test, crop safety; details: post-emerge, 14 days after application, rating scale 0-100
How it was run: as §4

[22] = 63 g ai/ha, rating scale 0-100 (0 no damage, 100 complete death)
[23] = 250 g ai/ha, rating scale 0-100

## COc1c(Cl)cc(F)c(-n2c(=O)cc(C(F)(F)F)n(C)c2=O)c1NNC(=O)C1CC1 [Compound 15-2, 3-[4-chloro-2-(2-cycopropanecarbonyldiazanyl)-6-fluoro-3-methoxyphenyl]-1-methyl-6-trifluoromethyl-2,4(1H, 3H)-pyrimidinedione]
[1]; 63 g ai/ha
  phytotoxicity rating AMARE: 100
[1]; 250 g ai/ha
  phytotoxicity rating AMARE: 100
[2]; 63 g ai/ha
  phytotoxicity rating ECHCG: 100
[2]; 250 g ai/ha
  phytotoxicity rating ECHCG: 100
[3]; 63 g ai/ha
  phytotoxicity rating SETVI: 100
[3]; 250 g ai/ha
  phytotoxicity rating SETVI: 100
[4]; 63 g ai/ha
  phytotoxicity rating IPOHE: 10
[4]; 250 g ai/ha
  phytotoxicity rating IPOHE: 100
[5]; 63 g ai/ha
  phytotoxicity rating SORHA: 100
[5]; 250 g ai/ha
  phytotoxicity rating SORHA: 100
[6]; 63 g ai/ha
  phytotoxicity rating CHEAL: 100
[6]; 250 g ai/ha
  phytotoxicity rating CHEAL: 100
[7]; 63 g ai/ha
  phytotoxicity rating DIGSA: 100
[7]; 250 g ai/ha
  phytotoxicity rating DIGSA: 100
[8]; 63 g ai/ha
  phytotoxicity rating CASOB: 100
[8]; 250 g ai/ha
  phytotoxicity rating CASOB: 100
[9]; 63 g ai/ha
  phytotoxicity rating ABUTH: 100
[9]; 250 g ai/ha
  phytotoxicity rating ABUTH: 100
[10]; 63 g ai/ha
  phytotoxicity rating CORN: 80
[10]; 250 g ai/ha
  phytotoxicity rating CORN: 100
[11]; 63 g ai/ha
  phytotoxicity rating RICE: 99
[11]; 250 g ai/ha
  phytotoxicity rating RICE: 100
[12]; 63 g ai/ha
  Post-emerge Herbicidal Activity ECHCG (phytotoxicity rating): 0
[12]; 250 g ai/ha
  Post-emerge Herbicidal Activity ECHCG (phytotoxicity rating): 90
[13]; 63 g ai/ha
  Post-emerge Herbicidal Activity SETVI (phytotoxicity rating): 0
[13]; 250 g ai/ha
  Post-emerge Herbicidal Activity SETVI (phytotoxicity rating): 80
[14]; 63 g ai/ha
  Post-emerge Herbicidal Activity IPOHE (phytotoxicity rating): 90
[14]; 250 g ai/ha
  Post-emerge Herbicidal Activity IPOHE (phytotoxicity rating): 100
[15]; 63 g ai/ha
  Post-emerge Herbicidal Activity SORHA (phytotoxicity rating): 0
[15]; 250 g ai/ha
  Post-emerge Herbicidal Activity SORHA (phytotoxicity rating): 70
[16]; 63 g ai/ha
  Post-emerge Herbicidal Activity DIGSA (phytotoxicity rating): 0
[16]; 250 g ai/ha
  Post-emerge Herbicidal Activity DIGSA (phytotoxicity rating): 80
[17]; [22]
  Post-emerge Herbicidal Activity AMARE (phytotoxicity rating): 20
[17]; [23]
  Post-emerge Herbicidal Activity AMARE (phytotoxicity rating): 95
[18]; 63 g ai/ha
  Post-emerge Herbicidal Activity CASOB (phytotoxicity rating): 10
[18]; 250 g ai/ha
  Post-emerge Herbicidal Activity CASOB (phytotoxicity rating): 75
[19]; 63 g ai/ha
  Post-emerge Herbicidal Activity ABUTH (phytotoxicity rating): 80
[19]; 250 g ai/ha
  Post-emerge Herbicidal Activity ABUTH (phytotoxicity rating): 100
[20]; 63 g ai/ha
  Post-emerge Herbicidal Activity CORN (crop damage rating): 15
[20]; 250 g ai/ha
  Post-emerge Herbicidal Activity CORN (crop damage rating): 80
[21]; 63 g ai/ha
  Post-emerge Herbicidal Activity RICE (crop damage rating): 50
[21]; 250 g ai/ha
  Post-emerge Herbicidal Activity RICE (crop damage rating): 75

## CCOC(=O)C(C)Oc1c(Cl)cc(F)c(-n2c(=O)cc(C(F)(F)F)n(C)c2=O)c1NC(=O)c1ccc2ccccc2c1 (stereo not drawn) [2-191]
[1]; 63 g ai/ha
  Pre-emerge Herbicidal Activity AMARE: 100
[1]; 250 g ai/ha
  Pre-emerge Herbicidal Activity AMARE: 100
[2]; 63 g ai/ha
  Pre-emerge Herbicidal Activity ECHCG: 0
[2]; 250 g ai/ha
  Pre-emerge Herbicidal Activity ECHCG: 10
[3]; 63 g ai/ha
  Pre-emerge Herbicidal Activity SETVI: 40
[3]; 250 g ai/ha
  Pre-emerge Herbicidal Activity SETVI: 80
[4]; 63 g ai/ha
  Pre-emerge Herbicidal Activity IPOHE: 10
[4]; 250 g ai/ha
  Pre-emerge Herbicidal Activity IPOHE: 40
[5]; 63 g ai/ha
  Pre-emerge Herbicidal Activity SORHA: 0
[5]; 250 g ai/ha
  Pre-emerge Herbicidal Activity SORHA: 50
[6]; 63 g ai/ha
  Pre-emerge Herbicidal Activity CHEAL: 100
[6]; 250 g ai/ha
  Pre-emerge Herbicidal Activity CHEAL: 100
[7]; 63 g ai/ha
  Pre-emerge Herbicidal Activity DIGSA: 0
[7]; 250 g ai/ha
  Pre-emerge Herbicidal Activity DIGSA: 70
[8]; 63 g ai/ha
  Pre-emerge Herbicidal Activity CASOB: 10
[8]; 250 g ai/ha
  Pre-emerge Herbicidal Activity CASOB: 30
[9]; 63 g ai/ha
  Pre-emerge Herbicidal Activity ABUTH: 80
[9]; 250 g ai/ha
  Pre-emerge Herbicidal Activity ABUTH: 100
[10]; 63 g ai/ha
  Pre-emerge Herbicidal Activity CORN: 0
[10]; 250 g ai/ha
  Pre-emerge Herbicidal Activity CORN: 0
[11]; 63 g ai/ha
  Pre-emerge Herbicidal Activity RICE: 10
[11]; 250 g ai/ha
  Pre-emerge Herbicidal Activity RICE: 20
[12]; 63 g ai/ha
  phytotoxicity rating ECHCG: 0
[12]; 250 g ai/ha
  phytotoxicity rating ECHCG: 0
[13]; 63 g ai/ha
  phytotoxicity rating SETVI: 0
[13]; 250 g ai/ha
  phytotoxicity rating SETVI: 10
[14]; 63 g ai/ha
  phytotoxicity rating IPOHE: 80
[14]; 250 g ai/ha
  phytotoxicity rating IPOHE: 100
[15]; 63 g ai/ha
  phytotoxicity rating SORHA: 0
[15]; 250 g ai/ha
  phytotoxicity rating SORHA: 0
[16]; 63 g ai/ha
  phytotoxicity rating DIGSA: 0
[16]; 250 g ai/ha
  phytotoxicity rating DIGSA: 0
[17]; [22]
  phytotoxicity rating AMARE: 40
[17]; [23]
  phytotoxicity rating AMARE: 90
[18]; 63 g ai/ha
  phytotoxicity rating CASOB: 30
[18]; 250 g ai/ha
  phytotoxicity rating CASOB: 80
[19]; 63 g ai/ha
  phytotoxicity rating ABUTH: 70
[19]; 250 g ai/ha
  phytotoxicity rating ABUTH: 90
[20]; 63 g ai/ha
  phytotoxicity rating CORN (crop damage): 10
[20]; 250 g ai/ha
  phytotoxicity rating CORN (crop damage): 20
[21]; 63 g ai/ha
  phytotoxicity rating RICE (crop damage): 10
[21]; 250 g ai/ha
  phytotoxicity rating RICE (crop damage): 20
